Patent US9475824B2, “Fused pyrimidines as inhibitors of p97 complex” (Cleave Biosciences, Inc., priority 2012, dated 2016)

What was measured:
[1] = tested on: K48-Ub, A549 cells; test: A549 K48 cell intensity (immunofluorescence, high content imaging); assay type: cell-based; details: Homo sapiens, 6 hr compound incubation
Method: Image-analysis is used to generate quantitative data from these assays that can be fit to a four-parameter sigmoid curve to derive IC50 values. Substrates of the ubiquitin-proteasome system, such as p53, are monitored after tumor cell lines are incubated with compounds for several hours. Accumulation of these proteins indicates an inhibition of proteasome-mediated degradation. Accumulation of lysine-48 chain linkage of poly-ubiquitin is also monitored by immunofluorescence as an indicator of ubiquitin-proteasome system inhibition. Both LC3 and SQSTM1 are mediators of autophagy. The localization and amounts of these proteins are monitored by immunofluorescence and report on the activity and inhibition of autophagy in response to p97 inhibition.
Day 1, Cell Plating to Establish Colonies of Cancer Cells • Cell Plating: • Seed cells ˜16 hrs prior to compound treatment • Plate 25 μL of A549 cells in every well of 384-well plate using multidrop. • Two (2) black plates for IF at 2500 cells/well • Let plate sit at room temp for 10-15 minutes prior to putting in incubator to allow cells to stick in middle of plate. • One (1) white plate for viability at 500 cells/well.

[2] = target: p97 (Homo sapiens, UniProt P55072); test: P97 ATPase biochemical assay (ADP Glo); details: 20 nM p97, 20 μM ATP, 37° C. 15 minutes
Method: The ATPase assay is performed according the following protocol: Purified enzyme (20 nM p97), substrate (20 μM ATP) and a dose titration of compounds are mixed in buffer (50 mM TRIS pH 7.5, 20 mM MgCl2, 0.02% TX-100, 1 mM DTT, 0.2% (v/v) glycerol) and incubated at 37° C. for 15 minutes. The reaction is terminated and the level of product generated is measured using the ADP Glo Assay Kit (Promega, Madison Wis.). Plotting product generated versus compound concentration and using a four-parameter fit model generates an IC50 value for each compounds.
The p97 assay is an initial screening assay used to determine inhibitory activity of the fused pyrimidine compounds of the invention against the p97 complex. As discussed above, inhibition of activity of the p97 proteosome complex can enable apoptosis and cause elimination of neoplastic cells (cancer cells). The method follows that of Christianson in Nat.
Assay Buffer is a mixture of 50 mM TRIS pH 7.5, 20 mM MgCl2, 0.02% TX-100, 1 mM DTT and 0.2% (v/v) Glycerol. […] The identification kit is an ADP glo kit (Promega): stop buffer, detection reagent.
0.5 μL compound serial diluted in DMSO (Final Conc. 10%)
2 μL ATP (Final Conc.=20 uM, diluted in assay buffer)
2.5 μL p97 (Final Conc.=20 nM, diluted in assay buffer)
Incubate at 37 degC for 15 min.
Add 5 μL of stop buffer, incubate at RT for 40 min.
Add 10 μL of detection reagent, incubate at RT for 30 min.
Read luminescence on Envision plate reader.
Plot normalized luminescence data against log-transformed concentration values and fit to a sigmoidal curve to determine IC50 values (done in Collaborative Drug Discovery software).

Chain of p97 (P55072 whole entry): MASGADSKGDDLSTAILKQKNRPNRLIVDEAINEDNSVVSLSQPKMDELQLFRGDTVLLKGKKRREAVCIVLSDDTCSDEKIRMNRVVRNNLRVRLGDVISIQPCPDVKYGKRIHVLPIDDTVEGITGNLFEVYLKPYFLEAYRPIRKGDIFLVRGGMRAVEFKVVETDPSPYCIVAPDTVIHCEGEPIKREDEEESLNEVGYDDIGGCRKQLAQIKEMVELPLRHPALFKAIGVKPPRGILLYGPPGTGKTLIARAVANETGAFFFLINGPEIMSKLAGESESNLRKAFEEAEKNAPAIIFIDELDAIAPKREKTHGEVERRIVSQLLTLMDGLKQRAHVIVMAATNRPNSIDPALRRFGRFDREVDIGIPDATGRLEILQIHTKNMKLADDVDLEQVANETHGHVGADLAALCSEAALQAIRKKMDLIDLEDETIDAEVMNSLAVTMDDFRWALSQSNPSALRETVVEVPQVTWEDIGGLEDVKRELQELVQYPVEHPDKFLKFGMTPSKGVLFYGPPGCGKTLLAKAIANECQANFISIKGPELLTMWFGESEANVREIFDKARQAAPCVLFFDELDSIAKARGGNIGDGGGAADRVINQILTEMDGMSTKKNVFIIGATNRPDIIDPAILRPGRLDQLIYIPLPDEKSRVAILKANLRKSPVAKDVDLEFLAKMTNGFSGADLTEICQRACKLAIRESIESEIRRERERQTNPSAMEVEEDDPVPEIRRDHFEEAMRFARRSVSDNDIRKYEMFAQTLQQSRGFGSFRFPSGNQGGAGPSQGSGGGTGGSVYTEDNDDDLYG

| IC50 [1] [µM] | IC50 [2] [µM] | SMILES |
| --- | --- | --- |
| < 10 | < 0.1 | COc1nc2ccccc2n1-c1nc2c(c(NCc3ccccc3)n1)CCCC2 [compound 9, N-benzyl-2-(2-methoxy-1H-1,3-benzodiazol-1-yl)-5,6,7,8-tetrahydroquinazolin-4-amine] |
| < 10 | < 0.3 | Cc1cc2ccccc2n1-c1nc2c(c(NCc3ccccc3)n1)CCCC2 [compound 21, N-benzyl-2-(2-methyl-1H-indol-1-yl)-5,6,7,8-tetrahydroquinazolin-4-amine] |
| < 10 | < 0.1 | Cc1cc2c(C#N)cccc2n1-c1nc2c(c(NCc3ccccc3)n1)CNCC2 [compound 42, 1-[4-(benzylamino)-5H,6H,7H,8H-pyrido[4,3-d]pyrimidin-2-yl]-2-methyl-1H-indole-4-carbonitrile] |
| – | < 1 | Cc1nc2c(C(N)=O)cccc2n1-c1nc2c(c(NCc3ccccc3)n1)CNCC2 [compound 83, 1-[4-(benzylamino)-5H,6H,7H,8H-pyrido[4,3-d]pyrimidin-2-yl]-2-methyl-1H-1,3-benzodiazole-4-carboxamide] |
| < 10 | < 0.03 | Cc1cc2c(C(=O)NCCN(C)C)cccc2n1-c1nc2c(c(NCc3ccccc3)n1)COCC2 [compound 84] |
| – | < 0.1 | NCc1cc2c(C(N)=O)cccc2n1-c1nc2c(c(NCc3ccccc3)n1)COCC2 [compound 86, 2-(aminomethyl)-1-[4-(benzylamino)-5H,7H,8H-pyrano[4,3-d]pyrimidin-2-yl]-1H-indole-4-carboxamide] |
| – | < 1 | N#Cc1cccc2c1nc(CN)n2-c1nc2c(c(NCc3ccccc3)n1)CCCC2 [compound 87, 2-(aminomethyl)-1-[4-(benzylamino)-5,6,7,8-tetrahydroquinazolin-2-yl]-1H-1,3-benzodiazole-4-carbonitrile] |
| – | < 1 | COCCOc1cccc2c(NCc3ccccc3)nc(-n3c(CN)nc4c(C(N)=O)cccc43)nc12 [compound 88, 2-(aminomethyl)-1-[4-(benzylamino)-8-(2-methoxyethoxy)quinazolin-2-yl]-1H-1,3-benzodiazole-4-carboxamide] |
| – | < 1 | Oc1nc2ccccc2n1-c1nc2c(c(NCc3ccccc3)n1)CCCC2 [compound 89, 1-[4-(benzylamino)-5,6,7,8-tetrahydroquinazolin-2-yl]-1H-1,3-benzodiazol-2-ol] |
| < 10 | < 0.03 | Cc1cc2c(C(N)=O)cccc2n1-c1nc2c(c(NCc3ccccc3)n1)CCCC2 [compound 90, 1-[4-(benzylamino)-5,6,7,8-tetrahydroquinazolin-2-yl]-2-methyl-1H-indole-4-carboxamide] |
| < 10 | < 0.03 | COc1cc2c(C(N)=O)cccc2n1-c1nc2c(c(NCc3ccccc3)n1)CCCC2 [compound 91, 1-[4-(benzylamino)-5,6,7,8-tetrahydroquinazolin-2-yl]-2-methoxy-1H-indole-4-carboxamide] |
| – | < 1 | COc1cc2c(C(N)=O)cccc2n1-c1nc2c(c(NCc3ccccc3)n1)CNCC2 [compound 92, 1-[4-(benzylamino)-5H,6H,7H,8H-pyrido[4,3-d]pyrimidin-2-yl]-2-methoxy-1H-indole-4-carboxamide] |
| < 10 | < 0.1 | Cc1nc2c(C(N)=O)cccc2n1-c1nc2c(c(NCc3ccccc3)n1)COCC2 [compound 93, 1-[4-(benzylamino)-5H,7H,8H-pyrano[4,3-d]pyrimidin-2-yl]-2-methyl-1H-1,3-benzodiazole-4-carboxamide] |
| < 10 | < 0.03 | COc1nc2c(C(N)=O)cccc2n1-c1nc2c(c(NCc3ccccc3)n1)COCC2 [compound 94, 1-[4-(benzylamino)-5H,7H,8H-pyrano[4,3-d]pyrimidin-2-yl]-2-methoxy-1H-1,3-benzodiazole-4-carboxamide] |
| – | < 1 | CN(C)Cc1cc2c(C(N)=O)cccc2n1-c1nc2c(c(NCc3ccccc3)n1)COCC2 [compound 95, 1-[4-(benzylamino)-5H,7H,8H-pyrano[4,3-d]pyrimidin-2-yl]-2-[(dimethylamino)methyl]-1H-indole-4-carboxamide] |
| < 10 | < 0.1 | NC(=O)c1cccc2c1cc(CO)n2-c1nc2c(c(NCc3ccccc3)n1)COCC2 [compound 96, 1-[4-(benzylamino)-5H,7H,8H-pyrano[4,3-d]pyrimidin-2-yl]-2-(hydroxymethyl)-1H-indole-4-carboxamide] |
| < 10 | < 0.1 | CNC(=O)c1cccc2c1cc(C)n2-c1nc2c(c(NCc3ccccc3)n1)COCC2 [compound 97, 1-[4-(benzylamino)-5H,7H,8H-pyrano[4,3-d]pyrimidin-2-yl]-N,2-dimethyl-1H-indole-4-carboxamide] |
| – | < 1 | Cc1cc2c(C(=O)NC(C)C)cccc2n1-c1nc2c(c(NCc3ccccc3)n1)COCC2 [compound 99, 1-[4-(benzylamino)-5H,7H,8H-pyrano[4,3-d]pyrimidin-2-yl]-2-methyl-N-(propan-2-yl)-1H-indole-4-carboxamide] |
| – | < 1 | Cc1cc2c(C(=O)NCCN(C)C)cccc2n1-c1nc2c(c(NCc3ccccc3)n1)COCC2 [compound 102, 1-[4-(benzylamino)-5H,7H,8H-pyrano[4,3-d]pyrimidin-2-yl]-N-[2-(dimethylamino)ethyl]-2-methyl-1H-indole-4-carboxamide] |
| – | < 0.03 | COc1nc2c(C(=O)O)cccc2n1-c1nc2c(c(NCc3ccccc3)n1)CCCC2 [compound 116, 1-[4-(benzylamino)-5,6,7,8-tetrahydroquinazolin-2-yl]-2-methoxy-1H-1,3-benzodiazole-4-carboxylic acid] |
| – | < 0.1 | Cc1cc2c(C(=O)O)cccc2n1-c1nc2c(c(NCc3ccccc3)n1)CNCC2 [compound 117, 1-[4-(benzylamino)-5H,6H,7H,8H-pyrido[4,3-d]pyrimidin-2-yl]-2-methyl-1H-indole-4-carboxylic acid] |
| – | < 1 | Cc1cc2c(C(=N)N)cccc2n1-c1nc2c(c(NCc3ccccc3)n1)COCC2 [compound 119] |
| – | < 0.03 | Cc1cc2c(-c3nnn[nH]3)cccc2n1-c1nc2c(c(NCc3ccccc3)n1)COCC2 [compound 120, N-benzyl-2-[2-methyl-4-(1H-1,2,3,4-tetrazol-5-yl)-1H-indol-1-yl]-5H,7H,8H-pyrano[4,3-d]pyrimidin-4-amine] |
| – | < 0.03 | Cc1cc2c(-c3nnn[nH]3)cccc2n1-c1nc2c(c(NCc3ccccc3)n1)CCCC2 [compound 121, N-benzyl-2-[2-methyl-4-(1H-1,2,3,4-tetrazol-5-yl)-1H-indol-1-yl]-5,6,7,8-tetrahydroquinazolin-4-amine] |
| < 10 | – | Cc1cc2c(CN)cccc2n1-c1nc2c(c(NCc3ccccc3)n1)COCC2 [compound 125, 2-[4-(aminomethyl)-2-methyl-1H-indol-1-yl]-N-benzyl-5H,7H,8H-pyrano[4,3-d]pyrimidin-4-amine] |
| – | < 0.1 | NC(=O)NCc1cc2c(C(N)=O)cccc2n1-c1nc2c(c(NCc3ccccc3)n1)CCCC2 [compound 127, 1-[4-(benzylamino)-5,6,7,8-tetrahydroquinazolin-2-yl]-2-[(carbamoylamino)methyl]-1H-indole-4-carboxamide] |
| – | < 1 | CC(C)c1cc2c(C(N)=O)cccc2n1-c1nc2c(c(NCc3ccccc3)n1)COCC2 [compound 129, 1-[4-(benzylamino)-5H,7H,8H-pyrano[4,3-d]pyrimidin-2-yl]-2-(propan-2-yl)-1H-indole-4-carboxamide] |
| – | < 0.03 | NC(=O)c1cccc2c1cc(C1CC1)n2-c1nc2c(c(NCc3ccccc3)n1)COCC2 [compound 131, 1-[4-(benzylamino)-5H,7H,8H-pyrano[4,3-d]pyrimidin-2-yl]-2-cyclopropyl-1H-indole-4-carboxamide] |
| – | < 1 | Cc1cc2c(C(=O)N(C)C)cccc2n1-c1nc2c(c(NCc3ccccc3)n1)CCCC2 [compound 133, 1-(4-(benzylamino)-5,6,7,8-tetrahydroquinazolin-2-yl)-N,N,2-trimethyl-1H-indole-4-carboxamide] |
| – | < 0.03 | CCOc1cc2c(C(N)=O)cccc2n1-c1nc2c(c(NCc3ccccc3)n1)CCCC2 [compound 135, 1-[4-(benzylamino)-5,6,7,8-tetrahydroquinazolin-2-yl]-2-ethoxy-1H-indole-4-carboxamide] |
